Assay results reported in patent US20230348358A1, “Serotonin Receptor Modulators” (Northeastern University, priority 2020, published 2023).
“Also recorded” adds a separate entry of the source.

Columns and labels:
[1] = biological target: T1, 5HT1A (Homo sapiens, UniProt P08908); test: 5HT1A function, Gαi cAMP signaling (CHO cells); assay type: cell-based
T1 sequence (P08908 1-422): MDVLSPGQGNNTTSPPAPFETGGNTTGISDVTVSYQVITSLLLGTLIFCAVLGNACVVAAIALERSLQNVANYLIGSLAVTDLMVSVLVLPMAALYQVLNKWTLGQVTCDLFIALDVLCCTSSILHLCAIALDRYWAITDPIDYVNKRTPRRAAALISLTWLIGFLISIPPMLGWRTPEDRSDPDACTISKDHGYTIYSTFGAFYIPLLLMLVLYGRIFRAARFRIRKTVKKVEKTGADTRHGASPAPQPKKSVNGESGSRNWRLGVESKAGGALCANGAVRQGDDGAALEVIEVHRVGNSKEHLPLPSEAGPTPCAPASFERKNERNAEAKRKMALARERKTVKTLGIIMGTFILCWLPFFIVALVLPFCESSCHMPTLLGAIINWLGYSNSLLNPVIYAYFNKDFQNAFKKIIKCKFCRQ

[2] = test system: C58/J mice; test: Idiopathic stereotypic jumping; assay type: in vivo, mouse; details: dose-dependent; listed as (2S)-5-FPT, HCl
[3] = test system: Fmr1 knockout and wild-type mice; test: c-Fos immunohistochemistry in brain of wild-type and Fmr1 knockout mice; assay type: in vivo, mouse; details: for c-Fos expression in the inferior colliculus: juvenile Fmr1 knockout mice, 30 seconds 120 dB alarm
Experimental: Brains are excised and post-fixed overnight in 4% paraformaldehyde, followed by 20% glycerol in TBS for at least 24 hrs. Coronal sections (40 μm) traversing regions of interest then be collected using a Leica CM1950 cryostat, and placed in cold TBS. c-Fos IHC is performed using free-floating IHC methods as have been previously described, but with a new primary antibody. A protocol with the Abcam [2H2] (ab208942) mouse monoclonal antibody has been recently optimized, which has essentially no cross-reactivity. An HRP-conjugated secondary antibody is used for visualization by the biotin-streptavidin technique using 3,3′-diaminobenzidine as the chromagen (Vectastain Elite, Vector Laboratories). Examination of c-Fos expression in frontal cortex, hypothalamus, nucleus accumbens, ventral tegmental area, amygdala, BNST, and hippocampus are conducted.
On the basis of the distribution of FMRP (Fragile X mental retardation protein) in the adult mouse brain and considering neural systems implicated in cognitive and neuropsychiatric symptoms (e.g., anxiety, sensory hypersensitivity, and social deficits) present in FXS and ASD, the effects of FPT were evaluated on c-Fos expression in the hippocampus (CA1, CA3, and dentate gyrus (DG)), the basolateral amygdala (ventral (BLAv), posterior (BLAp), and anterior (BLAa)), the somatosensory (SS) cortex, the hypothalamus (periventricular hypothalamic nucleus, intermediate (PVi), posterior hypothalamic nucleus (PH), and dorsomedial nucleus of the hypothalamus (DMH)), the paraventricular nucleus of the thalamus (PVT), and the ventral retrosplenial area (RSPv). Shown in FIG. 15A and FIG. 15B are results from analyses of c-Fos expression in CA3 and the BLAa, respectively. There were no main effects of the independent variables on c-Fos in CA3; however, there was a significant treatment effect in BLAa (F(1, 12)=14.22, P=0.0027). […] The effect was large, but the difference was not statistically significant (P=0.0871, d=1.54).

CN(C)[C@H]1CCc2c(cccc2-c2ccccc2F)C1.Cl [(S)-5-FPT, (2S)-5-(2-fluorophenyl)-N,N-dimethyl-1,2,3,4-tetrahydronaphthalen-2-amine HCl]
Function at 5HT1A [1]: Partial agonist
Stereotypic jumping [2]: potently eliminated stereotypic jumping; also recorded: greater efficacy in this model than the recently reported mGluR5 negative allosteric modulator, GRN-529
c-Fos expression in CA3 region of the hippocampus ([3]; WT and KO mice): did not significantly increase c-Fos expression
c-Fos expression in the inferior colliculus [3]: did not affect the number of c-Fos positive cells
c-Fos expression in the inferior colliculus ([3]; listed as FPT, HCl): no effect
c-Fos expression in other brain regions ([3]; mouse, in vivo): did not significantly alter c-Fos expression in any other brain region examined
